# Measured values published in patent US20230272012A1, “PEPTIDES AND METHODS OF USE” (REALTA LIFE SCIENCES, INC., priority 2020, published 2023).
# Bridge positions count the residues as written; N and C are the ends. Square brackets hold non-standard residues; d marks the D form. Ends that are not written are not given here. Peptide text beside a SMILES is read from it. R8 = C=CCCCCCC[C@@](C)(N)C(=O)O; S5 = C=CCCC[C@](C)(N)C(=O)O; Sar = CNCC(=O)O
# Columns and labels:
# [1] = target: T1, MPO (Homo sapiens, UniProt P05164); experiment: MPO activity assay (TMB oxidation); assay type: biochemical; conditions: half-maximal values from dose-response curves
# T1 construct: purchased Lee BioSolutions (Maryland Heights, Mo.)
# T1 sequence (P05164 49-745): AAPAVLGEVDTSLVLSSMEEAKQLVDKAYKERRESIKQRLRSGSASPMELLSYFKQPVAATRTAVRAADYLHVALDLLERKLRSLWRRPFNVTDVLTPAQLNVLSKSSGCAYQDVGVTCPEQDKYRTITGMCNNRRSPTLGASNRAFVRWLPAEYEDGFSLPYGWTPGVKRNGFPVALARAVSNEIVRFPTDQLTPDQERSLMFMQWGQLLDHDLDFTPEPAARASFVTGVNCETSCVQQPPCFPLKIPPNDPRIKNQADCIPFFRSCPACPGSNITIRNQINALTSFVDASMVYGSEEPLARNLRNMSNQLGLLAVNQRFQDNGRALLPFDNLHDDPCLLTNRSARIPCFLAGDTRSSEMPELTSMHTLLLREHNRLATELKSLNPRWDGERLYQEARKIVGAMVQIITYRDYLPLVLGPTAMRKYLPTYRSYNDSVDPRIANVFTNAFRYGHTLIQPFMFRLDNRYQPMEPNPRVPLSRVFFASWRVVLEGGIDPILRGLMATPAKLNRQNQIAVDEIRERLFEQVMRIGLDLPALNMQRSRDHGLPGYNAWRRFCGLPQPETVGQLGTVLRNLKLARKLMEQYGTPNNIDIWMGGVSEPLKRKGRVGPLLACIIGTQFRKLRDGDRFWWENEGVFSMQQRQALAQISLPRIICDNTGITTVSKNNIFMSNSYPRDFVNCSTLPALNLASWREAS
# Description: The MPO activity assay was performed as previously described. Briefly, peptides were diluted to 12 mg/ml and serially titrated in a 96 well plate at a volume of 0.02 ml. MPO was diluted to 20 μg/ml and 0.02 ml was added to the titrated peptides. TMB (3,30,5,50-tetramethylbenzidine) (0.1 ml) was added to each well for 2 minutes, followed by 0.1 ml of 2.5 N H2SO4 for another 2 minutes, and then read on a 96 well plate reader (BioTek) at 450 nm.
# The inventors also assessed the ability of RLS-0127* and RLS-0133* to inhibit MPO activity as determined by inhibition of oxidation of TMB in a plate-based assay. […] Additionally, the inventors assessed the ability of RLS-0127* and RLS-0133* to bind C1q in a plate-based assay in which C1q is coated on the plate and increasing amounts of the peptides are added, followed by primary antibody to the peptides and secondary antibody conjugated to HRP. The plate was then incubated with TMB to give a […] signal that is detected at a wavelength of 450 nm in a plate reader.
# [2] = target: T2, PD-1/PD-L1 interaction (Homo sapiens, UniProt Q15116+Q9NZQ7); experiment: PD-1/PD-L1 Blockade Bioassay (Promega); assay type: cell-based; conditions: increasing peptide concentrations
# T2 construct: host or cells: PD-1 effector cells; PD-L1 aAPC/CHO-K1 cells
# T2 sequence (Q15116 25-288): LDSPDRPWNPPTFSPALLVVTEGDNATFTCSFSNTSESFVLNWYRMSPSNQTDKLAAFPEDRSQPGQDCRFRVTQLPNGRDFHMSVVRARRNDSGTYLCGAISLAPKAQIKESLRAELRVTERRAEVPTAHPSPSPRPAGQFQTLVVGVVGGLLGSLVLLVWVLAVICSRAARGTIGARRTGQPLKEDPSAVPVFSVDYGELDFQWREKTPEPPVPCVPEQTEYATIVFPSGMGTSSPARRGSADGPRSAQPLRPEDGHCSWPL
# T2 sequence (Q9NZQ7 19-290): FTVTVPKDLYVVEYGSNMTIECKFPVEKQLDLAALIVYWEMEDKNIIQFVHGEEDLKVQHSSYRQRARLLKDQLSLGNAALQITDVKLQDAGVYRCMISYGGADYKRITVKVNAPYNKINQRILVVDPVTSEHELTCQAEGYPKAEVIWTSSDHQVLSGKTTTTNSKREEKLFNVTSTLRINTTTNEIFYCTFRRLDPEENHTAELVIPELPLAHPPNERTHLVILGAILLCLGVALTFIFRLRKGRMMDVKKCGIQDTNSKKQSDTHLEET
# Description: PD-1 effector cells were incubated with PD1-L1 aAPC cells in the absence or presence of increasing concentrations of anti-PD-1 antibody (positive control) and select PIC1 peptides. Luminescence was detected in luminometer plate reader.
# To assess if PIC1 peptides could block PD-1 inhibitory activity in a cell-based assay, select peptides were screened in the PD-1/PD-L1 Blockade Bioassay (Promega). The PD-1/PD-L1 Blockade Bioassay is a biologically relevant MOA-based assay that can be used to measure the potency and stability of antibodies and other biologics designed to block the PD-1/PD-L1 interaction. This bioluminescent cell-based assay is used to measure the potency and stability of molecules targeting PD-1 and consists of two genetically engineered cell lines: aAPC/CHO-K1 Cells are CHO-K1 cells with an engineered cell surface protein designed to activate cognate TCRs in an antigen-independent manner. When the two cell types are co-cultured, the PD-1/PD-L1 interaction inhibits TCR signaling and NFAT-mediated luciferase activity. Addition of an inhibitory molecule that blocks either PD-1 or PD-L1 releases the inhibitory signal and results in TCR signaling and NFAT-mediated luciferase activity.
# [3] = tested on: antibody-initiated complement activation (human O sera and AB red blood cells); experiment: ABO incompatibility hemolytic assay of complement activity (CH50-type); assay type: cell-based; conditions: peptide 0.8 mg/ml (~0.5 mM)
# Description: (§1) FIG. 1A-1B show PIC1 peptides' inhibition of complement activation in an ABO incompatibility assay. […] Inhibition of ABO incompatibility hemolysis in a CH50-type assay. Peptides are at a final concentration of 0.5 mM. Values are represented as a percent of the positive control, which consists of human O sera and AB red blood cells in GVBS^++ buffer. Data are the means of n=3 independent experiments±SEM.
# (§2) For hemolytic complement assays, human red blood cells (RBCs) from type AB donors were purified, washed, and standardized to 1.0×10^9 cells/ml, as previously described. Human sera from type O donors at a 15% final concentration was combined with 0.5 mM of the peptides and the volume was brought up to 0.2 ml with GVBS^++ and 5.0×10^7 RBCs. The samples were incubated for 1 hour at 37° C. and then spun at 3,000 rpm for 5 minutes and the supernatant was collected and read at 412 nm. Values are represented as a percent of the positive control, which consists of human O sera and AB red blood cells in GVBS^++ buffer.
# (§3) To assess the extent to which the peptide variants inhibit antibody-initiated complement activation, an ABO incompatibility ex vivo assay was utilized in which purified erythrocytes from a ‘type AB+’ donor are incubated with sera from a ‘type O’ subject containing anti-A and anti-B antibodies. Peptides were tested at a concentration of 0.8 mg/ml (˜0.5 mM). […] D-amino acid variants PA-0127 and PA-0133 decreased ABO hemolysis by 20% (P value=0.083) and 25% (P value=0.076), respectively. […]
# [4] = tested on: purified human Pan T-cells; experiment: T-cell exhaustion protocol (Dynabeads re-stimulation); assay type: cell-based; conditions: peptides 2 mg/ml at each stimulation; supernatant ELISA
# Description: Purified human pan-T-cells were subject to stimulation with Dynabeads every 48 hours over the period of 8 days with cells also receiving PIC1 peptides (2 mg/ml) at each stimulation. Cells not receiving Dynabeads were run in parallel to assess background levels of Caspase 3/7 signal. At the eighth day, cells were harvested and the levels of Caspase 3/7 determined by ELISA.
# Purified human pan-T-cells were subject to stimulation with Dynabeads every 48 hours over the period of 8 days with cells also receiving PIC1 peptides (2 mg/ml) at each stimulation. Cell supernatants were collected at each stimulation and levels of IL-2 and IFN-gamma assayed by ELISA.
# T-cell exhaustion is a form of T-cell dysfunction that occurs in cancer. It is defined by poor effector function, reduction in cytokine release (e.g., IL-2, TNF-alpha, IFN-gamma), sustained expression of inhibitory receptors (e.g., PD-1, LAG-3, CD244, CD160) with the progressive loss of effector function due to overstimulation. Exhaustion prevents optimal control of tumor growth. Exhausted T cells are prevalent in the tumor microenvironment (TME) and can lead to T-cell apoptosis. T-cell exhaustion is reversible, and pharmaceutical inhibition of T-cell exhaustion has been considered a promising strategy by many cancer researchers. To ascertain if PIC1 peptides could reverse T-cell exhaustion and increase T cell viability and effector function, a T-cell exhaustion protocol was developed. To induce T-cell exhaustion, purified human Pan T-cells were stimulated with T-Activator CD3/CD28 Dynabeads and cells are washed and re-stimulated every 48 hours. PIC1 peptides were added to the cells after each stimulation with Dynabeads. After three to four stimulations cells were harvested for readouts which consisted of assessing T-cell apoptosis by measuring Caspase 3/7 levels and production of cytokines IL-2 and IFN-gamma which is indicative of T-cell functionality. […] To further evaluate if PIC1 peptides could restore T-cell functionality in cells that have undergone the exhaustion protocol, the inventors next assessed production of cytokines IL-2 and IFN-gamma. Supernatants from the cells after each stimulation were collected and the cytokines measured by ELISA. […] The lower level of IFN-gamma signal compared to IL-2 was consistently seen in this assay.
# [5] = ABO incompatibility hemolytic assay of complement activity (CH50-type); assay type: cell-based, human; conditions: human; peptide 0.8 mg/ml (~0.5 mM); read-out: decrease of ABO hemolysis compared to PA-C9Sar
# Description: as §1, §2, §3
Molecule,MPO inhibition compared with PA-C9Sar [1],inhibition of PD-1/PD-L1 inhibitory signaling (luminescence) [2],other results
S5ALIS5EPI(Sar)CQERAA ([S5]ALI[S5]EPI[Sar]CQERAA; staple 1-5) [PA-0151],decreased MPO inhibition,,
"IALILEPdI(Sar)CQERAA (IALILEPIXCQERAA; D-isoleucine, sarcosine; MOD_RES (8)..(8) D-amino acid; MOD_RES (9)..(9) Sarcosine) [PA-0163]",decreased MPO inhibition,,
"dIALILEPI(Sar)CQERAA (IALILEPIXCQERAA; D-isoleucine, sarcosine; MOD_RES (1)..(1) D-amino acid; MOD_RES (9)..(9) Sarcosine) [PA-0156]",,did not show PD-1/PD-L1 inhibitory activity,
IALIR8EP(Sar)CCQS5RAA (IALI[R8]EP[Sar]CCQ[S5]RAA; bridges not given here; also: R8/S5 5-12 may or may not be stapled) [PA-0136],,,inhibition of ABO incompatible hemolysis compared to PA-I8Sar [3]: same level as the parent molecule
IALILEP(Sar)dCS5QERS5A (IALILEP[Sar][dC][S5]QER[S5]A; staple 10-14) [PA-0143],,did not show PD-1/PD-L1 inhibitory activity,
IALIR8EPI(Sar)CQS5RAA (IALI[R8]EPI[Sar]CQ[S5]RAA; staple 5-12) [PA-0148],decreased MPO inhibition,,
"IALILEdPI(Sar)CQERAA (IALILEPIXCQERAA; D-proline, sarcosine; MOD_RES (7)..(7) D-amino acid; MOD_RES (9)..(9) Sarcosine) [PA-0162]",,did not show PD-1/PD-L1 inhibitory activity,inhibition of complement in the hemolytic assay compared to PA-C9Sar [3]: slightly less well; IL-2 signal at stimulation 2 [4]: showed an IL-2 signal at stimulation 2
IALILEP(Sar)CS5QdERS5A (IALILEP[Sar]C[S5]Q[dE]R[S5]A; staple 10-14) [PA-0144],,did not show PD-1/PD-L1 inhibitory activity,
S5ALIS5EP(Sar)CCQERAA ([S5]ALI[S5]EP[Sar]CCQERAA; bridges not given here; also: S5 1-5 hydrocarbon staple: may or may not be stapled) [PA-0138],,,inhibition of ABO incompatible hemolysis compared to PA-I8Sar [3]: lesser extent
RLS-0142: PIC1 peptide screened in the bioassay; no sequence printed (IALILEP[Sar][dC][S5]QER[S5]A; staple 10-14),,did not show PD-1/PD-L1 inhibitory activity,
IALILEP(Sar)CS5QERS5dA (IALILEP[Sar]C[S5]QER[S5][dA]; bridges not given here; also: S5 10-14 may or may not be stapled) [PA-0145],,,increase in complement inhibition compared to PA-I8Sar [3]: ~10%
CC[C@H](C)[C@H](N)C(=O)N[C@@H](C)C(=O)N[C@@H](CC(C)C)C(=O)N[C@H](C(=O)N[C@@H](CC(C)C)C(=O)N[C@@H](CCC(=O)O)C(=O)N1CCC[C@H]1C(=O)N[C@H](C(=O)N(C)CC(=O)N[C@@H](CS)C(=O)N[C@@]1(C)CCCC=CCCC[C@@](C)(C(=O)O)NC(=O)[C@H](C)NC(=O)[C@H](CCCNC(=N)N)NC(=O)[C@H](CCC(=O)O)NC1=O)[C@@H](C)CC)[C@@H](C)CC [PA-0155] (H-IALILEPI[Sar]C[S5]ERA[S5]-OH; staple 11-15),decreased MPO inhibition,did not show PD-1/PD-L1 inhibitory activity,decrease in ABO hemolysis compared to reference peptide at 1 h [5]: 64%; inhibition of complement in the hemolytic assay compared to PA-C9Sar [3]: significant increase in complement inhibitory activity
IALIS5EP(Sar)S5CQERAA (IALI[S5]EP[Sar][S5]CQERAA; bridges not given here; also: S5 5-9 may or may not be stapled) [PA-0140],,,inhibition of ABO incompatible hemolysis compared to PA-I8Sar [3]: lesser extent; MPO inhibition compared with PA-I8Sar [1]: reduced inhibition of MPO activity
"IALILEPI(Sar)CQEdRAA (IALILEPIXCQERAA; D-arginine, sarcosine; MOD_RES (9)..(9) Sarcosine; MOD_RES (13)..(13) D-amino acid) [PA-0167]",,,inhibition of complement in the hemolytic assay compared to PA-C9Sar [3]: slightly less well
IAS5ILES5I(Sar)CQERAA (IA[S5]ILE[S5]I[Sar]CQERAA; staple 3-7) [PA-0153],decreased MPO inhibition,,
